For 1 compound, seeds germinated results are on record in patent US20200107549A1, “Enhancement of seed germination and plant growth under conditions of stress with pterostilbene, ellagic acid, nicotinamide riboside, and their combinations” (priority 2018, published 2020).

SMILES strings stand for the structures.

The assay has as its system rice seeds. Put plainly: rice seed germination in artificial paddy. The format is in vivo, Oryza sativa (Rice). The following applies: seeds incubated in 1 micromolar NR; water deprivation paddy, 37 seeds; only 1 seed germinated in that paddy's control. As to the method:
Conditions of “water deprivation” in this specification refers to the administration of less water than required for a seed to germinate typically. In the experiments described below, seeds subjected to a condition of “water deprivation” were given 2 mL of water 3 times a week, as opposed to 5 mL. In the rice experiment, the seeds subjected to “water deprivation” were not given any water after their planting in the artificial paddy. 5 mL of the solutions of the 3 compounds or combinations was placed in a small size weigh boats, along with water as the control. Up to 50 seeds were placed in the weigh boats. Incubation periods ranged from 18-24 hours at room temperature (recorded range of 55-65° F.). The seeds were then either placed in a germination chamber or planted in potting soil, as described below. For the rice plants, an artificial paddy field was built using two plastic bins filled with soil, and filled with water to a depth of 4 inches. A divider comprising of sticks was placed to delineate the experimental conditions comparing water soaked seeds or NR soaked seeds. In one paddy, water was replenished until germination was observed; the other received no added water. The bins were left outside for a total of 6 weeks; the daily temperatures ranged between 50 F to 95 F, and no rainfall was recorded during the experimental period. […]

Regarding `NC(=O)c1ccc[n+]([C@@H]2O[C@H](CO)[C@@H](O)[C@H]2O)c1` [NR, Nicotinamide riboside], the seeds germinated is on record as 32%.
